Laboratory results as given in ChEMBL document CHEMBL3390834, “Development of second generation epigenetic agents” (Medchemcomm, 2012).

Experiments:
Histone deacetylase 1 = Histone deacetylase 1 (Homo sapiens, UniProt Q13547)
Description: Inhibition of HDAC-1 (unknown origin) using (FAM)-labeled acetylated peptide as substrate after 17 hrs by fluorescence assay

[1] = molecular target: T1, NAD-dependent protein deacetylase sirtuin-2 (Homo sapiens, UniProt Q8IXJ6)
T1 sequence (Q8IXJ6 whole entry): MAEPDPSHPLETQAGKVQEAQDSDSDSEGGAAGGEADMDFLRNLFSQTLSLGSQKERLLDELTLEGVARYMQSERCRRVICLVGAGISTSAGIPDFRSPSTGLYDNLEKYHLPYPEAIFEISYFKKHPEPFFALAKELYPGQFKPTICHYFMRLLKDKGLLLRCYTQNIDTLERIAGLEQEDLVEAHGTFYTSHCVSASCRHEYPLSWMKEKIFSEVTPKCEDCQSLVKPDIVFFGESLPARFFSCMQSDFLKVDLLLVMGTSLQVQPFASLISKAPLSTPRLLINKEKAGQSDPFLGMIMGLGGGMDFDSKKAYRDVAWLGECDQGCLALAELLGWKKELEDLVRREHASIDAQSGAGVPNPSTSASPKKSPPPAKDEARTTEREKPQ
Description: Inhibition of recombinant human N-terminal His6-tagged SIRT-2 using ZMAL as substrate after 4 hrs by homogeneous fluorescent deacetylase assay

[2] = molecular target: T1, NAD-dependent protein deacetylase sirtuin-2; test: Inhibition of human SIRT-2 using fluor de Lys as substrate after 2 hrs by fluorescence assay
Saccharomyces cerevisiae [3] = test: Selectivity for yeast Sir2p over yeast Hst1p
[4] = molecular target: T2, Histone-arginine methyltransferase CARM1 (Homo sapiens, UniProt Q86X55); test: Inhibition of CARM-1 (unknown origin) using Histone H3 Arg-17 as substrate
T2 sequence (Q86X55 whole entry): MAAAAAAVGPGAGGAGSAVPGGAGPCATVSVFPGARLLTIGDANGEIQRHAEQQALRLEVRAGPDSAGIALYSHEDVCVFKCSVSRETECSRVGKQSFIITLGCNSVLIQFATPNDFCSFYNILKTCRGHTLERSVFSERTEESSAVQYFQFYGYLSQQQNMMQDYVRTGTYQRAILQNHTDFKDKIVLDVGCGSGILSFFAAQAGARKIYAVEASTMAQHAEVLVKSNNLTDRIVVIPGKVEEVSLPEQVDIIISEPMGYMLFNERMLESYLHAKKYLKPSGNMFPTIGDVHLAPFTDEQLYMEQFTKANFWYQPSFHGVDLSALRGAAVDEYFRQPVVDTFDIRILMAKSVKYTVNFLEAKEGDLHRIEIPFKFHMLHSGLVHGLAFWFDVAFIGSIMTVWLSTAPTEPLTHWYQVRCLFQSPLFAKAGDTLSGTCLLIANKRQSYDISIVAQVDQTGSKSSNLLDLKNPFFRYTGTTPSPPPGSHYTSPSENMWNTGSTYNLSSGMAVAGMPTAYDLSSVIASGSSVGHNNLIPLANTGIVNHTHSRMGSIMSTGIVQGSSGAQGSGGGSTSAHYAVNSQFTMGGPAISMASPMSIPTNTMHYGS

[5] = molecular target: Lysine-specific demethylase 4A (Homo sapiens, UniProt O75164); test: Inhibition of JMJD2A (unknown origin) using ARK(me3)STGGK peptide as substrate preincubated for 1 to 30 mins followed by substrate addition by MALDI-TOF/MS analysis
Histone deacetylase [6] = test: Inhibition of HDAC isolated from human HeLa cell nuclear extracts using Fluor de Lys as substrate after 30 mins by fluorescence assay; format: protein assay
Histone deacetylase [7] = test: Inhibition of HDAC in human HeLa cells assessed as alpha-tubulin acetylation after 7 hrs; format: cell-based
Histone deacetylase [8] = test: Inhibition of HDAC in human HeLa cells assessed as histone H3 hyperacetylation after 7 hrs; format: cell-based
Saccharomyces cerevisiae [9] = test: Selectivity for yeast Hst1p over yeast Sir2p
[10] = molecular target: T1, NAD-dependent protein deacetylase sirtuin-2; test: Inhibition of SIRT-2 (unknown origin)
[11] = Half life in C57BL/6J mouse at 10 mg/kg, po; format: ADME, organism-based; set-up: dose 10 mg/kg, route oral; conditions: in vivo
[12] = molecular target: T3, Histone acetyltransferase p300 (Homo sapiens, UniProt Q09472); test: Inhibition of p300 (unknown origin)
[13] = molecular target: T3, Histone acetyltransferase p300; test: Binding affinity to p300 (unknown origin) by ITC analysis
[14] = molecular target: T3, Histone acetyltransferase p300; test: Inhibition of recombinant full length p300 (unknown origin) expressed in baculovirus infected insect Sf21 cells using [3H]acetyl-CoA as substrate
[15] = molecular target: T2, Histone-arginine methyltransferase CARM1; test: Inhibition of full-length GST-tagged CARM-1 (unknown origin) expressed in Spodoptera frugiperda cells using histone H3 and tritiated-SAM as substrate
[16] = molecular target: Lysine-specific histone demethylase 1A (Homo sapiens, UniProt O60341); test: Inhibition of N-terminal His-6-tagged full length human LSD-1 expressed in Escherichia coli BL21 (DE3) using H3K4me2 peptide as substrate by Western blotting analysis
Egl nine homolog 1 = Egl nine homolog 1 (Homo sapiens, UniProt Q9GZT9); test: Inhibition of PHD-2 (unknown origin)
[17] = molecular target: T4, Lysine-specific demethylase 4E (Homo sapiens, UniProt B2RXH2); test: Binding affinity to JMJD2E (unknown origin)
T4 sequence (B2RXH2 whole entry): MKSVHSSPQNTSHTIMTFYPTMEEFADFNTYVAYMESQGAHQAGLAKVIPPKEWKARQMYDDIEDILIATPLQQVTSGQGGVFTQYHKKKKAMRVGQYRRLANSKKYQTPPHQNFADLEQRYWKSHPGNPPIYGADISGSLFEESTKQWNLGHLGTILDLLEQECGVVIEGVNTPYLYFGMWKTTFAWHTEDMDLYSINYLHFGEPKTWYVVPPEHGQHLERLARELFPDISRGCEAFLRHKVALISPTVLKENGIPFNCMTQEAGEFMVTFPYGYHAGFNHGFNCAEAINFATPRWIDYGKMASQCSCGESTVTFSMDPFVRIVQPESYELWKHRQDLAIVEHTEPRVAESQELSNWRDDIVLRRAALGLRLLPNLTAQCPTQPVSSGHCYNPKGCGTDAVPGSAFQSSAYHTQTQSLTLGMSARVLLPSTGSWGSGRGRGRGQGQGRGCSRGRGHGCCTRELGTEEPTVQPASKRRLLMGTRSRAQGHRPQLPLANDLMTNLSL

[18] = molecular target: Lysine-specific demethylase 2A (Homo sapiens, UniProt Q9Y2K7); test: Inhibition of FBXL11 (unknown origin) expressed in HEK293 cells; format: cell-based
[19] = molecular target: T3, Histone acetyltransferase p300; test: Inhibition of recombinant p300 (unknown origin) expressed in baculovirus expression system using [3H]acetyl-CoA as substrate preincubated for 10 mins followed by substrate addition measured after 10 mins by liquid scintillation counting analysis
[20] = molecular target: Histone acetyltransferase KAT2A (Homo sapiens, UniProt Q92830); test: Inhibition of human GCN5
CREB-binding protein = CREB-binding protein (Homo sapiens, UniProt Q92793); test: Inhibition of CBP (unknown origin)
[21] = molecular target: T4, Lysine-specific demethylase 4E
Description: Inhibition of N-terminal His-6-tagged human JMJD2E (1 to 337 residues) expressed in Escherichia coli by MALDI-TOF/MS analysis

T3 sequence (Q09472 whole entry): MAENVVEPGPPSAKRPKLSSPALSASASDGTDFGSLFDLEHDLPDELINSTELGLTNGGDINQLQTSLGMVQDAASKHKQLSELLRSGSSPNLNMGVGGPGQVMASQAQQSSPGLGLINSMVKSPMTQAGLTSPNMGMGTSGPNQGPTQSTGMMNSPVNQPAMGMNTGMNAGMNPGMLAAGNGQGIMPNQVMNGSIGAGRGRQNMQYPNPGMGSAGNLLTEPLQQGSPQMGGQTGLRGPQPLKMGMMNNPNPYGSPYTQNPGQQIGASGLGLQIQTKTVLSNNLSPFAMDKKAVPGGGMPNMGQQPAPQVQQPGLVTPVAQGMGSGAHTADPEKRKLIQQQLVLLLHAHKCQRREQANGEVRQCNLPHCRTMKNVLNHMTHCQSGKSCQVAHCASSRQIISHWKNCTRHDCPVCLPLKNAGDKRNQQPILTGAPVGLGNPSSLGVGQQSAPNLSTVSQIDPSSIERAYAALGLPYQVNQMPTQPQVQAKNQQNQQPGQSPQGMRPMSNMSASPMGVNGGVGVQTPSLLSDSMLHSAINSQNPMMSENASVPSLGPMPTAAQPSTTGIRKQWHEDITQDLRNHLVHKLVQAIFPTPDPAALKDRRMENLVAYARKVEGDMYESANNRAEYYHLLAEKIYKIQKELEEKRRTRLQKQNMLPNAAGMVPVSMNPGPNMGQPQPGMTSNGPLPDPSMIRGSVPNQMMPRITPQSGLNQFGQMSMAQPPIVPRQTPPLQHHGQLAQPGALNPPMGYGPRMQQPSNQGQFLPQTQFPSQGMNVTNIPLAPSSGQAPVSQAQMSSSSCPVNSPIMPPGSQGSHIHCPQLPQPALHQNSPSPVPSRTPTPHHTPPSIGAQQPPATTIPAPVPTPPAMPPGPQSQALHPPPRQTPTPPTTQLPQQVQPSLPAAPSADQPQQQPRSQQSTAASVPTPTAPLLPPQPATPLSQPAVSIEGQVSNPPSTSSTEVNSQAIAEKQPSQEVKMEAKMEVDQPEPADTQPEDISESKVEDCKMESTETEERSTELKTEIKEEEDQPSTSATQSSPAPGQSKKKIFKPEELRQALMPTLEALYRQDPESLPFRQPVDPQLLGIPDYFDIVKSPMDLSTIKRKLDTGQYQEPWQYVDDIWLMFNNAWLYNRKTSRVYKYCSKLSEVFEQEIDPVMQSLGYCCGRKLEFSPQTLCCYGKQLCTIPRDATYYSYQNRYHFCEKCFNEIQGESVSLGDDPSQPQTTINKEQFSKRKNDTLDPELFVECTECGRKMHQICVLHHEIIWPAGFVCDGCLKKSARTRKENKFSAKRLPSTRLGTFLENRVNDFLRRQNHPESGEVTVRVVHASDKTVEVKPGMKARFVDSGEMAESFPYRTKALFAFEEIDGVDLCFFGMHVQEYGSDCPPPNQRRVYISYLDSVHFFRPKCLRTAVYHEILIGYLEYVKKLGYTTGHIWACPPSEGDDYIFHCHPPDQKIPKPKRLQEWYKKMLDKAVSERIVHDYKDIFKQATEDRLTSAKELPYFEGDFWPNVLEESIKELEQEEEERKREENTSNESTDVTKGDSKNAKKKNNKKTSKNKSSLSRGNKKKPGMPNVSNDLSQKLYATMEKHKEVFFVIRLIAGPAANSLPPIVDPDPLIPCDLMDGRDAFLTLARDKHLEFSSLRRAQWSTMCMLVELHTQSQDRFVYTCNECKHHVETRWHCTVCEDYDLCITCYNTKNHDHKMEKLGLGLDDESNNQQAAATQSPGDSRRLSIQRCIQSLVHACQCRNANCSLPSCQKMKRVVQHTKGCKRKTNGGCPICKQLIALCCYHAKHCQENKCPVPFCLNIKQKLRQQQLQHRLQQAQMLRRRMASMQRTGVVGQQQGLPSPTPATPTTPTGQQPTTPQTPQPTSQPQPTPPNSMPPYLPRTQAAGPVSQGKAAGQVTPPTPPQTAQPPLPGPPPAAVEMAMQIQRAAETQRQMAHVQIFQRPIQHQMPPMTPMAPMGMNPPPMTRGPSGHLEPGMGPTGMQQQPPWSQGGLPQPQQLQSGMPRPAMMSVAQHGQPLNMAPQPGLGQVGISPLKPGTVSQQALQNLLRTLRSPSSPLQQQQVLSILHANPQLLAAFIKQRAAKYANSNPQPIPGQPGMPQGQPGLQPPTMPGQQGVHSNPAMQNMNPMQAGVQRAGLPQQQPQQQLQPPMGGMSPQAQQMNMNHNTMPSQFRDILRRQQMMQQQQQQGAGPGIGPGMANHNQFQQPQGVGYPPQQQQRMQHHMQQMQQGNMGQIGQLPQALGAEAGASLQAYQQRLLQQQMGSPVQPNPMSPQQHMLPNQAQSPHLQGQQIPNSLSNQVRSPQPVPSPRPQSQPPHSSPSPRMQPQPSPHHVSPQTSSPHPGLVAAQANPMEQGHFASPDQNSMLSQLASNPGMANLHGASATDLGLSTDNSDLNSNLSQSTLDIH
Sequence of Histone deacetylase 1 (Q13547 whole entry): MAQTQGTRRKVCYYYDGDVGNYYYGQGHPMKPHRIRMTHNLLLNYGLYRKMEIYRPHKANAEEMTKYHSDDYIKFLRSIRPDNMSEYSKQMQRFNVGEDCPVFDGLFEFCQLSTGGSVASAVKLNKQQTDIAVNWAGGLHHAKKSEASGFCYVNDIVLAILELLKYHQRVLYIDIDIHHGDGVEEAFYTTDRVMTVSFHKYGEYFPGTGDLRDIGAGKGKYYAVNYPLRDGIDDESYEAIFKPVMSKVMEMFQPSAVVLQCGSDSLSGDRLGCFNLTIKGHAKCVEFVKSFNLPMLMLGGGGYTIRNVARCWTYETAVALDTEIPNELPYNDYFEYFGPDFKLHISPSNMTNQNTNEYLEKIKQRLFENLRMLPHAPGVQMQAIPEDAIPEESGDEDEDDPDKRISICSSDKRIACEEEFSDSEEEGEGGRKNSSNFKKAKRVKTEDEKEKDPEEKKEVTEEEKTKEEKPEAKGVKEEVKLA
Sequence of Lysine-specific demethylase 4A (O75164 whole entry): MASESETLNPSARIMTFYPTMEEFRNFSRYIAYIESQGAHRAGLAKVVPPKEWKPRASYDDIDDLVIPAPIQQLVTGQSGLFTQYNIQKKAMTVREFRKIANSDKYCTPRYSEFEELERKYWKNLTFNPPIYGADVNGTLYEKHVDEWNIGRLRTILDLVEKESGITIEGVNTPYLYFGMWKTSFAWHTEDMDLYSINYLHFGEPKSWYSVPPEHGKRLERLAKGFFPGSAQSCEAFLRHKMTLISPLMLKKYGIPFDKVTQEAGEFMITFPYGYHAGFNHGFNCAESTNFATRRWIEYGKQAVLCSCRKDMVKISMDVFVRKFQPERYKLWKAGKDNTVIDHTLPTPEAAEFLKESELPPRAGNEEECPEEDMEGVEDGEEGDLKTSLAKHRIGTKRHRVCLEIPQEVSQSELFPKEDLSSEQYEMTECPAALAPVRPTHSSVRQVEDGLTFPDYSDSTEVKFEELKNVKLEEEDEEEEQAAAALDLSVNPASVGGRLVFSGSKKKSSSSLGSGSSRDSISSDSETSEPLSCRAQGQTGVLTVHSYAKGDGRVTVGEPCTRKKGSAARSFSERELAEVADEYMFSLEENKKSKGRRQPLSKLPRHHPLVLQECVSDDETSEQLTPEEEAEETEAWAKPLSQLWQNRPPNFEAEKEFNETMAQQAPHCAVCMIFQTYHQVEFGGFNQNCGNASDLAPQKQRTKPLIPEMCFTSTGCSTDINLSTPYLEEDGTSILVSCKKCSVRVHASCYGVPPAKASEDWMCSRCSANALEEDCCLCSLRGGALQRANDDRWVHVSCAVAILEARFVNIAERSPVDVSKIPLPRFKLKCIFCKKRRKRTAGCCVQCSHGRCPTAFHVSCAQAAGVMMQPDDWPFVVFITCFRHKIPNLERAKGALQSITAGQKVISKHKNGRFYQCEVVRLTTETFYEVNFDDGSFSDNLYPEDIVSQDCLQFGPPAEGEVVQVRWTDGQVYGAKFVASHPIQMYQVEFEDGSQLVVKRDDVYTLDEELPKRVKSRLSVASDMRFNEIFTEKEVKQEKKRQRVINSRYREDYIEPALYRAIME
Sequence of Egl nine homolog 1 (Q9GZT9 whole entry): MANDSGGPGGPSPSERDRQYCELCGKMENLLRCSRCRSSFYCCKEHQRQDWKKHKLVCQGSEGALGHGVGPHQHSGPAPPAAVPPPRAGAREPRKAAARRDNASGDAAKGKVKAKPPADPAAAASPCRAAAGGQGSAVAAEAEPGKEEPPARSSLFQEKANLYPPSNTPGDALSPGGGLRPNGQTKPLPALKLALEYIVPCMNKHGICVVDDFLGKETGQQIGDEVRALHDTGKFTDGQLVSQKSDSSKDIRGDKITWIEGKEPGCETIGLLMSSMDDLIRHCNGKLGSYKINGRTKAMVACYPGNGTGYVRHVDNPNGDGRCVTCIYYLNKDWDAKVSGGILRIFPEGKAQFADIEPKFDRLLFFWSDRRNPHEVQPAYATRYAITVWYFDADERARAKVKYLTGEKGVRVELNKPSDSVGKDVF

Nc1ccccc1NC(=O)CCCCCCC(=O)Nc1cccc(-c2cn(-c3ccccc3)nn2)c1
IC50 (Histone deacetylase 1): > 30 µM

CCCCCCCCCCC[C@]1(CO)CCCC(=O)O[C@](CO)(CCCCCCCCCCC)CCCC(=O)O1
IC50 [1]: 2 µM
IC50 [2]: 0.176 µM

O=C1CCc2c(c(OCc3ccccc3)cc3ccccc23)O1
Selectivity ratio (Saccharomyces cerevisiae [3]): 13

O=c1oc2c(O)c(O)cc3c(=O)oc4c(O)c(O)cc1c4c23 [ELLAGIC ACID]
IC50 [4]: 25 µM

CCNC(=S)SSC(=S)NCC
IC50 [5]: 15.3 µM

CC(=O)SCC(=O)c1ccc(NS(=O)(=O)c2ccc(OCCCN(C)C)cc2)nc1
IC50 (Histone deacetylase [6]): 0.045 µM
EC50 (Histone deacetylase [7]): 0.325 µM
EC50 (Histone deacetylase [8]): 0.025 µM

O=c1ccc2c(ccc3ccccc32)o1
Selectivity ratio (Saccharomyces cerevisiae [9]): 5

NC(=O)c1ccccc1Nc1ccccc1 [ANILINOBENZAMIDE]
IC50 [10]: 74 µM

NC(=O)C1CCCc2c1[nH]c1ccc(Cl)cc21 (stereo not given)
half-life [11]: 2 h

CC(=O)N[C@@H](CCCCNC(=O)CSCCNC(=O)CCNC(=O)[C@H](O)C(C)(C)COP(=O)(O)OP(=O)(O)OC[C@H]1O[C@@H](n2cnc3c(N)ncnc32)[C@H](O)[C@@H]1OP(=O)(O)O)C(N)=O
Ki [12]: 0.019 µM

CC1=CC(=O)c2c(O)cccc2C1=O [PLUMBAGIN]
Kd [13]: 2 µM
IC50 [14]: 2 µM

C[C@H](N)C(=O)NCc1cccc(-n2nc(C(F)(F)F)cc2-c2nnc(-c3cccc4[nH]ccc34)o2)c1
IC50 [15]: 0.027 µM

CCNCCCCCCCCCCCCCCCCNC/C=C/CNCCCCCCCCCCCCCCCCNCC
IC50 [16]: 5 µM

CNCCN1CCC(c2ccc3[nH]c(-c4ccccc4OC)c(F)c3c2)CC1
IC50 [15]: 0.03 µM

[N-]=[N+]=Nc1ccc(C(=O)N[C@@H](CCCCNC(=O)COCCOCCNC(=O)CCCC[C@@H]2SC[C@@H]3NC(=O)N[C@@H]32)C(=O)NCCCNC(=O)c2ccc(O)c3ncccc23)cc1
IC50 (Egl nine homolog 1): 41.8 µM
Kd [17]: 58.4 µM
IC50 [18]: 9.1 µM

COc1cc(C(=O)C2=C3OC(C)(C)[C@@H](CC=C(C)C)C[C@@]34C[C@@H](CC=C(C)C)C(C)(C)[C@@](CC=C(C)C)(C2=O)C4=O)ccc1O
IC50 [19]: 5 µM

C=C1C(=O)O[C@@H](CCC)[C@@H]1C(=O)O
IC50 [20]: 100 µM
IC50 (CREB-binding protein): 500 µM

C[C@](N)(Cc1ccc(O)c(O)c1)C(=O)O [METHYLDOPA]
IC50 [21]: 3 µM
